# In PMC7062083, “Metabolite identification, tissue distribution, excretion and preclinical pharmacokinetic studies of ET-26-HCl, a new analogue of etomidate” (Royal Society Open Science, 2020):
# Assays:
# [1] = Plasma protein binding, equilibrium dialysis, rat plasma; format: in vitro ADME
# Procedure: (§1) The PPB of ET-26-HCl in mouse, rat, beagle dog, monkey and human plasma was determined according to the equilibrium dialysis method. In brief, 1 ml of control plasma samples in dialysis bag was incubated in 10 ml of PBS containing ET-26-HCl at a final concentration of 2.21 × 10^2, 1.77 × 10^3 and 3.54 × 10^3 […] at 4°C with an equilibrium time of 9 h to reach the mass balance binding condition. A 100 µl aliquots of the PBS buffer and the plasma in the dialysis bag were transferred to 2 ml EP tubes and diluted to 995 µl with PBS and analysed on the LC–MS/MS system. The PPB (fppb) was calculated as follows: fppb=Din−Dout/Din×100% , where Din is the plasma drug concentration in the dialysis bag and Dout is the dialysate drug concentration.
# [2] = Dose tolerance pre-experiment in rats; format: in vivo
# Procedure: For the PK study of beagle dogs and excretion test of rats, how do you identify those doses? As you described, beagle dogs in the 6 groups received three doses of ET-26- HCl: 1.045 mg/kg, 2.090 mg/kg, and 4.180 mg/kg as low (L), medium (M), and high (H) dose; however, the rats received a single 4.2 mg/kg dose of ET-26-HCl. Please provide the citations or calculation of […]
# Thank the reviewer for this comment. According to the “Guidelines for non-clinical pharmacokinetic studies of drugs” of China Food and Drug Administration, the in vivo pharmacokinetic studies of animals should be performed with at least three dose groups, which the high dose is preferably close to the maximum tolerated dose, and the small dose is selected based on the limits of the effective dose of the animals. […]
# kg and 1.045 mg/ kg for rat and dog, respectively, according to the results of the drug effect in the early stage of the cooperation laboratory. In our pre-experiment, individual rats appeared myoclonus after the 4-fold ED50 dose administration. When given the higher dose, some rats […]
# Thus, the ED50, 2-fold ED50, and 4-fold ED50 dose were used as the low, middle and high dose group for the pharmacokinetic study in our previous research. Similar dosage design was used in our present work. The middle dose (4.2 mg/kg dose of ET-26-HCl) was utilized for the excretion test in rats. […]
# [3] = Plasma protein binding, equilibrium dialysis, mouse plasma; format: in vitro ADME
# Procedure: as §1
# [4] = Tissue distribution in Sprague Dawley rats; format: in vivo
# Procedure: Concentrations of ET-26-HCl and ET-26-acid in biological samples were determined by liquid chromatography–tandem mass spectrometry (LC–MS/MS) after deproteinization with methanol. The bioanalytical method for simultaneous quantification of ET-26-HCl and ET-26-acid in the different matrix was fully validated according to FDA guidelines (electronic supplementary material, figure S1 and tables S1 and S2) in our previous study. Briefly, a 100 µl sample (plasma, tissue homogenate, bile, urine and faeces suspension) were spiked with 20 µl of IS solution and vortexed for 30 s. The mixture was then processed for protein precipitation with 300 µl methanol, followed by centrifugation at 12 000 r.p.m. for 5 min. Supernatant was collected and analysed by LC–MS/MS system.
# Sprague Dawley (SD) rats (200–240 g) were provided by the Animal Facility at Sichuan University (Chengdu, China). All rats received a single 4.2 mg kg^−1 dose of ET-26-HCl intravenously. Rats were sacrificed and tissues, including heart, spleen, lung, intestine, colon, kidney, brain, fat, stomach, liver, muscle, testis and ovary were collected at 0, 1, 3, 6 and 10 h post-dosing (six rats/time-point). Tissue samples were rinsed thrice in ice cold saline, and blotted dry with filter papers. Weighed amount of tissues were homogenized in normal saline (thrice the tissue weight, w/v) and homogenates were stored at −80°C until analysis.
# [5] = Plasma protein binding, equilibrium dialysis, human plasma; format: in vitro ADME; conditions: human, plasma
# Procedure: as §1
# [6] = system: human plasma; assay: as above; format: in vitro ADME; conditions: overall over the three concentrations
# Procedure: as §1
# [7] = Metabolic stability in monkey liver microsomes; format: in vitro ADME
# Procedure: (§2) Samples were analysed by LC–MS/MS as mentioned above.2.1 CLint, in vitro=0.693/t1/2/Cprotein, 2.2 CLint, in vivo=CLint, in vitro×Houston×LW/1000 2.3 andCLhep in vivo=HBF × fu ×CLint, in vivo/HBF + fu ×CLint, in vivo. Where Cprotein is microsomal protein concentration (mg ml^−1); Houston is Houston factor (45 mg of microsomal protein g^−1 liver); LW is liver weight (g) (per species); HBF is hepatic blood flow (ml min^−1) (per species); fu (two places) and later is unbound fraction (fu = 1 − %protein binding).
# [8] = Metabolic stability in mouse liver microsomes; format: in vitro ADME
# Procedure: as §2
# [9] = parameters: method as in earlier work; conditions: dog; ref results of the drug effect in the early stage of the cooperation laboratory; cited from earlier work
# [10] = measured concentration 654 ng ml^−1
# [11] = measured concentration 2.62 × 10^3 ng ml^−1, read-out: protein binding (converted)
# [12] = measured concentration 5.23 × 10^3 ng ml^−1, read-out: protein binding (converted)
# [13] = overall over the three concentrations, read-out: plasma protein binding rate (converted)
structure (smiles),measurement,setting,value
"COCCOC(=O)c1cncn1[C@H](C)c1ccccc1.Cl [ET-26-HCl, (R)-2-methoxyethyl1-(1-phenylethyl)-1H-imidazole-5-carboxylate hydrochloride]","fraction unbound at 9 h, 654 ng ml^−1",[1]; [10],0.181
same,fraction unbound at 9 h,[1]; [11],0.15
same,fraction unbound at 9 h,[1]; [12],0.178
same,fraction unbound at 9 h,[1]; [13],0.17
same,adverse signs observed,"[2]; individual rats, after the 4-fold ED50 dose",myoclonus
same,adverse signs observed,"[2]; some rats, dose higher than 4-fold ED50",convulsions and even died
same,"fraction unbound at 9 h, 654 ng ml^−1",[3]; [10],0.0453
same,fraction unbound at 9 h,[3]; [11],0.0539
same,fraction unbound at 9 h,[3]; [12],0.0702
same,fraction unbound at 9 h,[3]; [13],0.0565 ± 0.000689
same,time for complete excretion from kidney,[4]; i.v. 4.2 mg kg^−1,≤ 24 h
same,time for elimination from the brain,[4]; i.v. 4.2 mg kg^−1,≤ 3 h
same,concentration in the brain,"[4]; i.v. 4.2 mg kg^−1, at the onset",2570 ng/mL
same,time for clearance from tissues,[4]; i.v. 4.2 mg kg^−1 ET-26-HCl,around 3 h
same,tissues with the highest concentration,[4]; i.v. 4.2 mg kg^−1 ET-26-HCl,Adipose tissue and liver
same,"fraction unbound at 9 h, 654 ng ml^−1",[5]; [10],0.372
same,fraction unbound at 9 h,[5]; [11],0.318
same,fraction unbound at 9 h,[5]; [12],0.261
same,fraction unbound at 9 h,[5]; [13],0.317
same,plasma protein binding rate,[6],68%
same,"CLint, in vitro",[7]; monkey liver microsomes,2216 ml min g^−1 protein
same,metabolic stability (in words),[7]; monkey liver microsomes,not metabolically stable
same,time to complete disappearance of ET-26-HCl,[7]; monkey liver microsomes,≤ 15 min
same,"CLint, in vitro","[7]; monkey liver microsomes, Cprotein 0.33 mg ml^−1",2216 ± 43.0 ml min^−1 g^−1 protein
same,extrapolated CLhep in vivo,"[7]; monkey, from liver microsomes",168 ± 0.05 mL/min
same,"CLint, in vitro",[8]; mouse liver microsomes,629 ml min g^−1 protein
same,metabolic stability (in words),[8]; mouse liver microsomes,not metabolically stable
same,"CLint, in vitro","[8]; mouse liver microsomes, Cprotein 0.33 mg ml^−1",629 ± 25.7 ml min^−1 g^−1 protein
same,extrapolated CLhep in vivo,"[8]; mouse, from liver microsomes",2.8 ± 0.0 mL/min
same,"extrapolated CLint, in vivo","[8]; mouse, from liver microsomes",42.4 ± 1.7 mL/min
same,half-life,"[8]; mouse, liver microsomes, pH 7.4, mouse liver microsomes, Cprotein 0.33 mg ml^−1",< 5 min
same,ED50,[9],1.045 mg/kg
